US20220313873A1, “COLORED BIOLOGIC WOUND TREATMENT PROVIDING HEALING PROGRESS MONITORING” (KERECIS HF, priority 2021, published 2022)

Experiments:
cells = experiment: Preliminary cytotoxicity tests; details: preliminary tests by the inventors
[1] = Stability of coloring agents in decellularization (Decell) solution; format: physicochemical; details: 0.5 mL of 1% w/v color solution in 50 mL Decell solution
Description: A first set of experiments were conducted to determine the stability of various coloring agents within a decellularization solution (termed herein as “Decell solution”) used in the processing/manufacturing of Kerecis™ fish-skin-derived cellular scaffold products, which is made from the minimally processed skin of wild-caught Atlantic cod, as described in U.S. Pat. No. 8,613,957.
The Decell solution was prepared in accordance with EBL M222. 50 mL of the Decell solution was aliquoted into each of 7 separate plastic tubes securable with a respective lid. A first tube included only the Decell solution, acting as a control. A 0.5 mL aliquot of each of the 6 prepared color solutions was separately added to a corresponding tube containing 50 mL of Decell solution. Any reaction or visible change of the mixture was monitored over time.
The solutions in respective tubes with the respective coloring agents were monitored and documented by photographs at the start of the experiment, after 30 minutes, and after 24 hours of incubation.

| Structure (SMILES) | cytotoxicity (cells) | color of the Decell solution ([1]; after 24 hours) | fading of color in Decell solution ([1]; first 20 minutes) |
| --- | --- | --- | --- |
| CN(C)c1ccc(C(=C2C=CC(=[N+](C)C)C=C2)c2ccc(N(C)C)cc2)cc1 [GV, gentian violet] | did not cause any cytotoxicity concern | – | – |
| CN(C)c1ccc2nc3ccc(N(C)C)cc3[s+]c2c1.[Cl-] [Methylene Blue, methylene blue] | did not cause any cytotoxicity concern | had all turned white or nearly white except the Decell solution with the added Methylene Blue | notable exception |
